Assay results from US7939074B2, “Combination of an anti-EP-CAM antibody with a chemotherapeutic agent” (GlaxoSmithKline LLC, priority 1999, dated 2011).
Structures can show the parent of a compound that is named as a salt.

Experiments:
[1] = tested on: Human colon adenocarcinoma (HT-29) tumours; assay: Localization of 177Lu-labelled humanised 323/A3 IgG4cys-TMT to HT-29 xenografts after drug pre-treatment; type: in vivo, female CD-1 nude mice; details: HT-29 xenograft mice; NAVELBINE 28 mg/kg i.v. or 5-FU 20 mg/kg i.p. on days 1 and 5; labelled antibody on day 6
Method: Human colon adenocarcinoma (HT-29) tumours were initiated by subcutaneous implantation into female CD-1 nude mice (Charles River). When the tumours reached 200-300 mg, animals were divided into groups of five. NAVELBINE® was injected intravenously at a dosage of 28 mg/kg on days 1 and 5. A control group was dosed with 5-fluorouracil (5-FU) intraperitoneally at 20 mg/kg on days 1 and 5. On day 6, humanised 323/A3 IgG4cys-TMT (a humanized monoclonal antibody chelator conjugate with specificity for the Ep-CAM antigen) was labelled with lutetium-177 and injected intravenously via the lateral tail vein. Each mouse received […]/2.09 μCi lutetium-177/0.2 ml injection. Blood, spleen, liver, lung, kidney, femur and tumour were harvested on days 1, 3 and 5 post-antibody for direct gamma counting (see FIG. 5 for results).

adenocarcinoma cells = assay: Cell cycle analysis (propidium iodide flow cytometry) of drug-exposed adenocarcinoma cell lines; type: cell-based, human; details: adenocarcinoma cell line; NVB 30 nM then CDDP 5 μM; TAX 80 nM then CPBDA 100 μM; interferons 100 U/ml; media control 6.3%
Method: (§1) Populations of PC-3 prostatic adenocarcinoma cells were evaluated for distribution in G0/G1, S, and G2/M phases of the cell cycle as well as Ep-CAM expression. Cells were gently trypsinized and mechanically detached from the culture flasks and resuspended in calcium and magnesium-free phosphate-buffered saline containing bovine serum albumin and NaN3. Exactly 2×10^5 cells were stained with FITC-323/A3 murine IgG antibody or FITC-murine IgG (control). Cells were fixed with cold paraformaldehyde, then permeabilized for DNA staining with Tween-20. Cellular DNA was stained with propidium iodide and RNase A. Listmode data were acquired on a FACScan flow cytometer (Becton Dickinson Immunocytometry Systems) equipped with a 488 nm laser using Cell Fit software. Cell cycle analysis was done using SOBR modelling (where possible, otherwise manual estimations were employed) on Cell Fit. Ep-CAM antigen expression as detected by 323/A3 binding was evaluated separately using histogram analysis in WINLIST™ (Verity Software House).
(§2) Subconfluent cells were exposed to NAVELBINE® or TAXOL® for up to 24 hours, then washed and exposed to cisplatin or carboplatin, respectively, overnight. Cells were exposed to 5FU for 24 hours, and for 2-5 days to the interferons. Cells were washed and cultured for another 2-5 days prior to analysis for antigen expression and cell cycle status as described in Example 1. Antigen expression was quantified by comparison of the binding of fluorescein-conjugated 323/A3 to cultured cells with binding to calibrated microbead standards.

[2] = tested on: Ep-CAM antigen on adenocarcinoma cells; assay: Quantification of Ep-CAM antigen expression by binding of fluorescein-conjugated 323/A3 versus calibrated microbead standards; type: cell-based, human; details: adenocarcinoma cells exposed to drugs, Example 2 / FIG. 2, versus media
Method: as §1, §2
The expression of Ep-CAM antigen was quantified on a variety of adenocarcinoma cell lines as well as primary cultures of normal human cells. Cultured subconfluent cells were exposed sequentially to media, or to 30 nM NAVELBINE® followed by 5 μM cisplatin (NVB+CDDP), or to 80 nM TAXOL® followed by 100 μM carboplatin (TAX+CPBDA). Cells were washed with media and cultured for another 2-5 days prior to analysis for antigen expression as described in Examples 1 and 2.

[3] = tested on: HT29 adenocarcinoma cells; assay: Cell cycle arrest in drug-treated HT29 cells; type: cell-based, human; details: HT29 cells cultured with drugs; control cells 21%
Method: as §1, with “Cellular DNA was stained with propidium iodide and RNase A. Listmode data were acquired on a FACScan flow cytometer (Becton Dickinson Immunocytometry Systems) equipped with a 488 nm laser using Cell Fit software. Cell cycle analysis was done using SOBR modelling (where possible, otherwise manual estimations were employed) on Cell Fit.” left out
Subconfluent cells were exposed to NAVELBINE® or TAXOL® for up to 24 hours, then washed and exposed to cisplatin or carboplatin, respectively, overnight. […] Antigen expression was quantified by comparison of the binding of fluorescein-conjugated 323/A3 to cultured cells with binding to calibrated microbead standards.
The binding of PANOREX®, a related murine monoclonal antibody with specificity for the Ep-CAM antigen, was evaluated after a 15 minute incubation with HT29 adenocarcinoma cells which had been cultured with NAVELBINE® plus Cisplatin or with TAXOL® as previously described. […]

[4] = tested on: HT29 adenocarcinoma cells; assay: Binding of PANOREX to drug-treated HT29 cells; type: cell-based, human; details: 15 minute incubation with PANOREX after culture with drugs
Method: as §2
The binding of PANOREX®, a related murine monoclonal antibody with specificity for the Ep-CAM antigen, was evaluated after a 15 minute incubation with HT29 adenocarcinoma cells which had been cultured with NAVELBINE® plus Cisplatin or with TAXOL® as previously described. A significant increase (34%) in antibody binding was seen on the cells treated with NAVELBINE® plus Cisplatin; 82% of these cells were arrested in S or G2/M cycle phase compared to 21% of the control cells.

`CCC1=C[C@@H]2CN(C1)Cc1c([nH]c3ccccc13)[C@@](C(=O)OC)(c1cc3c(cc1OC)N(C)[C@H]1[C@@](O)(C(=O)OC)[C@H](OC(C)=O)[C@]4(CC)C=CCN5CC[C@]31[C@@H]54)C2` (relative stereo) [NAVELBINE®, 3′,4′-didehydro-4′-deoxy-C′-norvincaleukoblastine [R-(R*,R*)-2,3-dihydroxybutanedioate (1:2)(salt)]] was tested, and the “antibody targeting to Ep-CAM positive tumours” value [1] was “increases antibody targeting”.

In the case of `O=c1[nH]cc(F)c(=O)[nH]1` [5FU, 5-Fluorouracil], the “cells in S and G2/M phases combined” value (adenocarcinoma cells) is reported as 7.9% and the Ep-CAM antigen expression [2] is reported as “not significantly increased”.

In the case of `CC(=O)O[C@H]1C(=O)[C@@]2(C)[C@H]([C@H](OC(=O)c3ccccc3)[C@]3(O)C[C@H](OC(=O)[C@H](O)[C@@H](NC(=O)c4ccccc4)c4ccccc4)C(C)=C1C3(C)C)[C@]1(OC(C)=O)CO[C@@H]1C[C@@H]2O` [TAXOL®, 5β,20 epoxy-1,2α,4,7β,10β,13α-hexahydroxytax-11-en-9-one 4,10-diacetate 2-benzoate 13-ester with (2R,3S)-N-benzoyl-3-phenylisoserine], the “cells arrested in S or G2/M cycle phase” value [3] is reported as 57% and the “increase in antibody binding (PANOREX)” value [4] is reported as 8%.

With IFN-α the “cells in S and G2/M phases combined” value (adenocarcinoma cells) was 12% and the Ep-CAM antigen expression [2] was “not significantly increased”.

In the case of “IFN-γ: interferon-gamma, used at 100 U/ml”, the “cells in S and G2/M phases combined” value (adenocarcinoma cells) is reported as 11.5% and the Ep-CAM antigen expression [2] is reported as “not significantly increased”.
